Assay [1] deals with T1, Recombinant STAT3 protein (STAT3 (G127-I722)) (Homo sapiens, UniProt P40763).
T1 construct: Recombinant STAT3 protein (STAT3 (G127-I722))
Briefly: STAT3 Fluorescence Polarization (FP) Assay. It is filed as binding. As to conditions: STAT3 (G127-I722) 25 nM, probe 5-FAM-GpYLPQTV-NH2 2 nM, 45-minute incubation; read-out: STAT3 (FP assay IC50 class). The method, boiled down:
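Read-out is fluorescence polarization (mP) after 45 min at room temperature, with IC50 fitted by nonlinear regression against log compound concentration. Mixture: 25 nM STAT3 (G127-I722), 2 nM 5-FAM-GpYLPQTV-NH2 phosphopeptide, 10 mM HEPES pH 7.4 buffer, 1% DMSO.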
(In fluorescence polarisation assays a small probe gives low polarisation when free and higher when bound to something large.)

The target of assay [2] is T2, Recombinant STAT6 protein (STAT6 (W123-T658)) (Homo sapiens, UniProt P42226).
T2 construct: Recombinant STAT6 protein (STAT6 (W123-T658))
T2 sequence (P42226 123-658): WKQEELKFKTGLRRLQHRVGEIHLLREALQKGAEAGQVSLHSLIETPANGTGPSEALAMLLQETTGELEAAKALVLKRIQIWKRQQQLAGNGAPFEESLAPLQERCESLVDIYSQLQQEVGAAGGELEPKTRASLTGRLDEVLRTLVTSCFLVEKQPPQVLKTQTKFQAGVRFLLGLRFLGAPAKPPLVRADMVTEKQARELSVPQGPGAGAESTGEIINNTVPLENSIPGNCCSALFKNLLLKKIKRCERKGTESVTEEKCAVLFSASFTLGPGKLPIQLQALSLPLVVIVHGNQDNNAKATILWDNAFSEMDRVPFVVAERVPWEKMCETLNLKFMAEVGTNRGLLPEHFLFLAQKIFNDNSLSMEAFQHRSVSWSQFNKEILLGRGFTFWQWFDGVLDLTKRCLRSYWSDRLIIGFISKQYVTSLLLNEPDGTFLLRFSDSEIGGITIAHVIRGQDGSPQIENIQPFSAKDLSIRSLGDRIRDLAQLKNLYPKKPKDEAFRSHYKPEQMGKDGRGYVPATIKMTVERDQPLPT
Briefly: STAT6 Fluorescence Polarization (FP) Assay. Format: binding. To be noted: STAT6 (W123-T658) 250 nM, probe 5-FAM-Ap[…]-NH2 2 nM, 45-minute incubation; read-out: STAT6 (FP assay IC50 class). The method, boiled down:
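Serially diluted compounds received a premix of STAT6 (W123-T658, 250 nM) and 5-FAM peptide probe (2 nM) in pH 7.4 HEPES buffer containing DTT and Tween 20. Following 45 min at room temperature, FP was recorded. IC50s were fitted by nonlinear regression; values are binned A (≤300 nM), B (>300-3000 nM), C (>3-30 μM), D (>30 μM).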

T1 sequence (P40763 127-722): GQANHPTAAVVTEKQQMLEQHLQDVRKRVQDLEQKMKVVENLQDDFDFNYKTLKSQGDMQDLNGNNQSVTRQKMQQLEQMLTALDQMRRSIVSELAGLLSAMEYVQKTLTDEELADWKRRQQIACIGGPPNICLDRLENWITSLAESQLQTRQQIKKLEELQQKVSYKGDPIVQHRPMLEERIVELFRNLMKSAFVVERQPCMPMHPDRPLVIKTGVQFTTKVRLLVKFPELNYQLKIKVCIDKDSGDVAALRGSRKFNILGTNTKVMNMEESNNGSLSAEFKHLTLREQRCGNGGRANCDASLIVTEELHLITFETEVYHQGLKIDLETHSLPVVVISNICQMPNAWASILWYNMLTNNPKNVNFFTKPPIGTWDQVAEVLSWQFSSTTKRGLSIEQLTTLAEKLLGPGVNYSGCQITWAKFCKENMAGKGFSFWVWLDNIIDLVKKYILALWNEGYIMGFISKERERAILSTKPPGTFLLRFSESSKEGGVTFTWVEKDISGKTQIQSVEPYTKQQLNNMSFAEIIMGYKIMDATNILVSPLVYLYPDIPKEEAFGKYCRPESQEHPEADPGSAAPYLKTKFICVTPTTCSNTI

Consider `COC[C@@H]1CCN1c1ccncc1C1CN(C(=O)[C@@H]2CC[C@@H]3CCC[C@H](NC(=O)c4cc5cc(CP(=O)(O)O)ccc5s4)C(=O)N32)C1` [Compound 213, ((2-(((3S,6S,9aS)-3-(3-(4-((S)-2-(methoxymethyl)azetidin-1-yl)pyridin-3-yl)azetidine-1-carbonyl)-5-oxooctahydro-1H-pyrrolo[1,2-a]azepin-6-yl)carbamoyl)benzo[b]thiophen-5-yl)methyl)phosphonic acid], for which the figures for the 50% inhibitory concentration (IC50) in assay [1] and in assay [2] were < 0.1 µM and 3 to 30 µM, respectively.
For `Cc1ccncc1C1CN(C(=O)[C@@H]2CC[C@@H]3CCC[C@H](NC(=O)c4cc5cc(CP(=O)(O)O)ccc5s4)C(=O)N32)C1` [Compound 214, ((2-(((3S,6S,9aS)-3-(3-(4-methylpyridin-3-yl)azetidine-1-carbonyl)-5-oxooctahydro-1H-pyrrolo[1,2-a]azepin-6-yl)carbamoyl)benzo[b]thiophen-5-yl)methyl)phosphonic acid] the same measures were 0.1 to 1 µM and 3 to 30 µM.
In the same order, the values of `COC1(c2nccn2C)CN(C(=O)[C@@H]2CC[C@@H]3CCC4(CC4)C[C@H](NC(=O)c4ccc5ccc(C(F)(F)P(=O)(O)O)cc5c4)C(=O)N32)C1` [Compound 215, (difluoro(7-(((3′S,6′S,10a′S)-3′-(3-methoxy-3-(1-methyl-1H-imidazol-2-yl)azetidine-1-carbonyl)-5′-oxooctahydro-5′H-spiro[cyclopropane-1,8′-pyrrolo[1,2-a]azocin]-6′-yl)carbamoyl)naphthalen-2-yl)methyl)phosphonic acid] are 1 to 10 µM and 3 to 30 µM.
In the same order, the values of `O=C(N[C@H]1CC2(CC[C@H]3CC[C@@H](C(=O)N4CC(c5cccnc5)C4)N3C1=O)CC2)c1cc2cc(CP(=O)(O)O)ccc2s1` [Compound 216, ((2-(((3′S,6′S,10a′S)-5′-oxo-3′-(3-(pyridin-3-yl)azetidine-1-carbonyl)octahydro-5′H-spiro[cyclopropane-1,8′-pyrrolo[1,2-a]azocin]-6′-yl)carbamoyl)benzo[b]thiophen-5-yl)methyl)phosphonic acid] are 0.1 to 1 µM and 3 to 30 µM.
Take `O=C(N[C@H]1CCCC[C@H]2CC[C@@H](C(=O)N3CCC(c4cccnc4)C3)N2C1=O)c1ccc2ccc(CP(=O)(O)O)cc2c1` (stereo partly drawn) [Compound 217, ((7-(((3S,6S,10aS)-5-oxo-3-(3-(pyridin-3-yl)pyrrolidine-1-carbonyl)decahydropyrrolo[1,2-a]azocin-6-yl)carbamoyl)naphthalen-2-yl)methyl)phosphonic acid]: the IC50 (usually the concentration that gives 50% inhibition) in assay [1] was 1 to 10 µM; in assay [2], 3 to 30 µM.
In the same order, the values of `O=C(N[C@H]1CCCC[C@H]2CC[C@@H](C(=O)N3CCC(c4cccnc4)C3)N2C1=O)c1ccc2ccc(C(F)(F)P(=O)(O)O)cc2c1` (stereo partly drawn) [Compound 218, (difluoro(7-(((3S,6S,10aS)-5-oxo-3-(3-(pyridin-3-yl)pyrrolidine-1-carbonyl)decahydropyrrolo[1,2-a]azocin-6-yl)carbamoyl)naphthalen-2-yl)methyl)phosphonic acid] are 0.1 to 1 µM and ≤ 0.3 µM.
On to `CC(=O)N1C[C@H](NC(=O)[C@@H]2CC[C@@H]3CCC[C@H](NC(=O)c4cc5cc(CP(=O)(O)O)ccc5s4)C(=O)N32)[C@@H](F)C1` [Compound 219, ((2-(((3S,6S,9aS)-3-(((3S,4S)-1-acetyl-4-fluoropyrrolidin-3-yl)carbamoyl)-5-oxooctahydro-1H-pyrrolo[1,2-a]azepin-6-yl)carbamoyl)benzo[b]thiophen-5-yl)methyl)phosphonic acid], for which the IC50 in assay [1] lay in the range of 1 to 10 µM; in assay [2] it was 3 to 30 µM.
As for `CC(F)(c1ccc2sc(C(=O)N[C@H]3CCC[C@H]4CC[C@@H](C(=O)N5CC(c6cccnc6)C5)N4C3=O)cc2c1)P(=O)(O)O` (stereo partly drawn) [Compound 221, (1-fluoro-1-(2-(((3S,6S,9aS)-5-oxo-3-(3-(pyridin-3-yl)azetidine-1-carbonyl)octahydro-1H-pyrrolo[1,2-a]azepin-6-yl)carbamoyl)benzo[b]thiophen-5-yl)ethyl)phosphonic acid], the 50% inhibitory concentration (IC50) in assay [1] is < 0.1 µM; in assay [2], 3 to 30 µM.
On to `CC(F)(c1ccc2sc(C(=O)N[C@H]3CCCC[C@H]4CC[C@@H](C(=O)N5CCC(c6cccnc6)C5)N4C3=O)cc2c1)P(=O)(O)O` (stereo partly drawn) [Compound 222, (1-fluoro-1-(2-(((3S,6S,10aS)-5-oxo-3-(3-(pyridin-3-yl)pyrrolidine-1-carbonyl)decahydropyrrolo[1,2-a]azocin-6-yl)carbamoyl)benzo[b]thiophen-5-yl)ethyl)phosphonic acid], for which the concentration for half-maximal inhibition (IC50) was in the range of 0.1 to 1 µM in assay [1] and 0.3 to 3 µM in assay [2].
For `O=C(N[C@H]1CCCC[C@H]2CC[C@@H](C(=O)N3CCC(c4cccnc4)C3)N2C1=O)c1cc2cc(C(F)P(=O)(O)O)ccc2s1` (stereo partly drawn) [Compound 223, (fluoro(2-(((3S,6S,10aS)-5-oxo-3-(3-(pyridin-3-yl)pyrrolidine-1-carbonyl)decahydropyrrolo[1,2-a]azocin-6-yl)carbamoyl)benzo[b]thiophen-5-yl)methyl)phosphonic acid] the same measures were 0.1 to 1 µM and 0.3 to 3 µM.
`O=C(N[C@@H]1C(=O)N2[C@@H](CCC[C@H]1C1CC1)CC[C@H]2C(=O)N1CC(c2cccnc2)C1)c1cc2cc(C(F)(F)P(=O)(O)O)ccc2s1` [Compound 233, ((2-(((3S,6S,7S,10aS)-7-cyclopropyl-5-oxo-3-(3-(pyridin-3-yl)azetidine-1-carbonyl)decahydropyrrolo[1,2-a]azocin-6-yl)carbamoyl)benzo[b]thiophen-5-yl)difluoromethyl)phosphonic acid]: the half-inhibitory concentration (IC50) in assay [1] is < 0.1 µM; in assay [2] it was 3 to 30 µM.
In the same order, the values of `COc1ccncc1C1CN(C(=O)[C@@H]2CC[C@@H]3CCCC[C@H](NC(=O)c4cc5cc(C(F)P(=O)(O)O)ccc5s4)C(=O)N32)C1` (stereo partly drawn) [Compound 236, (fluoro(2-(((3S,6S,10aS)-3-(3-(4-methoxypyridin-3-yl)azetidine-1-carbonyl)-5-oxodecahydropyrrolo[1,2-a]azocin-6-yl)carbamoyl)benzo[b]thiophen-5-yl)methyl)phosphonic acid] are < 0.1 µM and 3 to 30 µM.
For `CCC[C@@H]1CC[C@H](NC(=O)c2cc3cc(C(F)P(=O)(O)O)ccc3s2)C(=O)N2[C@H](CC[C@H]2C(=O)N2CC(c3cnccc3OC)C2)C1` (stereo partly drawn) [Compound 241, (fluoro(2-(((3S,6S,9R,10aR)-3-(3-(4-methoxypyridin-3-yl)azetidine-1-carbonyl)-5-oxo-9-propyldecahydropyrrolo[1,2-a]azocin-6-yl)carbamoyl)benzo[b]thiophen-5-yl)methyl)phosphonic acid] the same measures were < 0.1 µM and 3 to 30 µM.
For `O=C(N[C@H]1CCCC[C@H]2CC[C@@H](C(=O)N3C[C@@H](c4cccnc4)CC34CC4)N2C1=O)c1cc2cc(CP(=O)(O)O)ccc2s1` [Compound 244, ((2-(((3S,6S,10aS)-5-ox0-3-((R)-6-(pyridin-3-yl)-4-azaspiro[2.4]heptane-4-carbonyl)decahydropyrrolo[1,2-a]azocin-6-yl)carbamoyl)benzo[b]thiophen-5-yl)methyl)phosphonic acid] the same measures were 1 to 10 µM and 0.3 to 3 µM.
For the compound `CC[C@H]1CC[C@H](NC(=O)c2cc3cc(C(F)P(=O)(O)O)ccc3s2)C(=O)N2[C@H](CC[C@H]2C(=O)N2CC(c3cnccc3OC)C2)C1` (stereo partly drawn) [Compound 245, ((2-(((3S,6S,9S,10aR)-9-ethyl-3-(3-(4-methoxypyridin-3-yl)azetidine-1-carbonyl)-5-oxodecahydropyrrolo[1,2-a]azocin-6-yl)carbamoyl)benzo[b]thiophen-5-yl)fluoromethyl)phosphonic acid], the half-inhibitory concentration (IC50) is < 0.1 µM in assay [1] and 3 to 30 µM in assay [2].
In the case of `COc1ccncc1C1CN(C(=O)[C@@H]2CC[C@@H]3C[C@@H](C(C)C)CC[C@H](NC(=O)c4cc5cc(C(F)P(=O)(O)O)ccc5s4)C(=O)N32)C1` (stereo partly drawn) [Compound 246, (fluoro(2-(((3S,6S,9S,10aR)-9-isopropyl-3-(3-(4-methoxypyridin-3-yl)azetidine-1-carbonyl)-5-oxodecahydropyrrolo[1,2-a]azocin-6-yl)carbamoyl)benzo[b]thiophen-5-yl)methyl)phosphonic acid], the half-maximal inhibitory concentration (IC50) in assay [1] is < 0.1 µM; in assay [2] it was 3 to 30 µM.

Values taken from patent publication US20250215029A1 (Recludix Pharma, Inc., priority 2022, published 2025).
